Reference: the supplement of paper PMC10307832

Columns and labels:
Experiment in all cases: relative viability (nuclei count vs DMSO), 5 days (fraction); higher = more cells survive
Temozolomide + Foretinib = compound: Cn1nnc2c(C(N)=O)ncn2c1=O [Temozolomide] + COc1cc2c(Oc3ccc(NC(=O)C4(C(=O)Nc5ccc(F)cc5)CC4)cc3F)ccnc2cc1OCCCN1CCOCC1 [Foretinib] (partner 0.25 µM)
Procedure, shortened: (§1)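 Relative viability is defined as nuclei in treated wells over nuclei in vehicle wells. Duplicate plates were run and medians reported. Lung cancer cell lines in 1536-well plates were dosed by pin tool one day after seeding, with one drug or with a fixed anchor-drug dose plus five library-drug doses (not always all listed) in √10 steps, and nuclei were counted after 5 days.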

AZD5582 + Pemetrexed = compound: C[C@@H](C(=O)N[C@@H](C1CCCCC1)C(=O)N2CCC[C@H]2C(=O)N[C@@H]3[C@@H](CC4=CC=CC=C34)OCC#CC#CCO[C@@H]5CC6=CC=CC=C6[C@@H]5NC(=O)[C@@H]7CCCN7C(=O)[C@H](C8CCCCC8)NC(=O)[C@H](C)NC)NC [AZD5582] + Nc1nc2[nH]cc(CCc3ccc(C(=O)N[C@@H](CCC(=O)O)C(=O)O)cc3)c2c(=O)[nH]1 [Pemetrexed] (partner 0.2 µM)
Procedure, shortened: as §1

[1] = compound: Cn1nnc2c(C(N)=O)ncn2c1=O [Temozolomide] + Cc1cc(Nc2cc(N3CCN(C)CC3)nc(Sc3ccc(NC(=O)C4CC4)cc3)n2)n[nH]1 [Tozasertib] (partner 0.1 µM)
Procedure, shortened: as §1

[2] = compound: Cn1nnc2c(C(N)=O)ncn2c1=O [Temozolomide] + Nc1nc2[nH]cc(CCc3ccc(C(=O)N[C@@H](CCC(=O)O)C(=O)O)cc3)c2c(=O)[nH]1 [Pemetrexed] (partner 0.2 µM)
Procedure, shortened: as §1

Cell Line	relative viability (Temozolomide + Foretinib; first compound 0.2 µM)	relative viability (Temozolomide + Foretinib; first compound 0.6325 µM)	relative viability (Temozolomide + Foretinib; first compound 2 µM)	relative viability (Temozolomide + Foretinib; first compound 6.325 µM)	relative viability (Temozolomide + Foretinib; first compound 20 µM)	relative viability (AZD5582 + Pemetrexed; first compound 0.001581 µM)	relative viability (AZD5582 + Pemetrexed; first compound 0.005 µM)	relative viability (AZD5582 + Pemetrexed; first compound 0.01581 µM)	relative viability (AZD5582 + Pemetrexed; first compound 0.05 µM)	relative viability ([1]; first compound 0.2 µM)	relative viability ([1]; first compound 0.6325 µM)	relative viability ([1]; first compound 2 µM)	relative viability ([1]; first compound 6.325 µM)	relative viability ([1]; first compound 20 µM)	relative viability ([2]; first compound 0.2 µM)	relative viability ([2]; first compound 0.6325 µM)	relative viability ([2]; first compound 2 µM)	relative viability ([2]; first compound 6.325 µM)	relative viability ([2]; first compound 20 µM)
EMC-BAC-2	0.947	1.07	1.02	0.998	0.973	0.417	0.406	0.426	0.46	0.326	0.309	0.274	0.255	0.314	0.468	0.445	0.485	0.415	0.509
NCI-H1651	0.914	0.725	0.782	0.759	0.839	0.507	0.562	0.52	0.638	0.716	0.779	0.674	0.684	0.684	0.58	0.588	0.591	0.6	0.617
HCC-827	1.14	1.01	0.994	0.894	0.153	0.272	0.273	0.283	0.205	0.428	0.436	0.409	0.458	0.114	0.176	0.273	0.249	0.264	0.16
SW 1573	0.861	0.915	0.79	0.725	0.938	0.805	0.774	0.954	0.821	0.298	0.177	0.162	0.207	0.169	0.907	0.833	0.845	0.867	0.846
NCI-H460	0.988	0.967	1	0.96	1.11	0.0644	0.0659	0.0592	0.059	0.441	0.418	0.518	0.368	0.339	0.0579	0.0556	0.0638	0.0585	0.0573
NCI-H1648	–	–	–	–	–	0.654	0.738	–	0.708	–	0.525	0.397	0.448	0.435	–	0.614	0.554	0.696	0.82
NCI-H647	1.16	1.3	1.13	0.702	0.302	0.126	0.14	0.193	0.124	0.263	0.307	0.412	0.148	0.147	0.169	0.17	0.2	0.146	0.122
NCI-H322M	–	0.937	1.12	0.982	0.864	0.705	0.732	0.659	0.785	–	0.508	0.484	0.546	0.4	0.56	0.591	0.635	0.499	0.536
NCI-H1666	0.917	0.868	0.837	0.611	0.679	0.788	0.879	0.794	0.71	0.594	0.589	0.631	0.531	0.5	0.736	0.895	0.963	0.877	0.767
NCI-H2342	0.793	1	1.04	1.02	0.886	0.79	0.747	0.756	0.791	0.49	0.57	0.492	0.598	0.346	0.653	0.86	0.914	0.708	0.769
ChaGo-K-1	0.993	0.886	0.992	0.98	0.975	0.243	0.267	0.254	0.276	0.263	0.209	0.3	0.191	0.226	0.258	0.256	0.263	0.257	0.246
CAL-12T	1.13	1.09	1.15	1.05	1.13	0.792	0.811	1.11	0.967	0.335	0.339	0.347	0.34	0.382	1.34	1.12	1.1	1.16	1.39
LOU-NH91	0.674	0.913	0.941	0.568	0.569	0.341	0.367	0.367	0.408	0.548	0.728	0.687	0.641	0.482	0.389	0.366	0.371	0.395	0.458
NCI-H1975	0.997	0.936	1.09	0.917	0.931	0.266	0.248	0.291	0.235	0.975	0.718	0.823	0.699	0.737	0.307	0.323	0.319	0.299	0.289
LC-2-ad	0.838	1	0.971	0.898	0.765	0.283	0.272	0.28	0.278	0.429	0.517	0.505	0.41	0.422	0.281	0.296	0.279	0.291	0.287
ABC-1	1.06	0.96	1.21	1.07	1.11	–	–	–	–	0.158	0.138	0.196	0.164	0.218	–	–	–	–	–
NCI-H2405	0.992	1.07	1.09	1.01	0.994	1.05	1.13	1.09	1.12	0.716	0.722	0.791	0.72	0.776	1.08	1.03	1.14	1.03	0.965
IA-LM	1.35	1.23	1.19	1.03	1.34	–	–	–	–	–	–	–	–	–	–	–	–	–	–
NCI-H1355	0.947	0.938	1.1	1	0.908	0.942	1	0.986	0.815	0.583	0.612	0.66	0.548	0.553	1.01	1.03	0.963	1	0.998
NCI-H2085	0.847	1.04	1.05	0.939	0.749	0.999	1.07	0.482	0.848	0.735	0.784	0.86	0.817	0.855	1.04	0.951	0.979	0.926	0.744

Cell Line	relative viability (Temozolomide + Foretinib; first compound 0.2 µM)	relative viability (Temozolomide + Foretinib; first compound 0.6325 µM)	relative viability (Temozolomide + Foretinib; first compound 2 µM)	relative viability (Temozolomide + Foretinib; first compound 6.325 µM)	relative viability (Temozolomide + Foretinib; first compound 20 µM)	relative viability (AZD5582 + Pemetrexed; first compound 0.001581 µM)	relative viability (AZD5582 + Pemetrexed; first compound 0.005 µM)	relative viability (AZD5582 + Pemetrexed; first compound 0.01581 µM)	relative viability (AZD5582 + Pemetrexed; first compound 0.05 µM)	relative viability ([1]; first compound 0.2 µM)	relative viability ([1]; first compound 0.6325 µM)	relative viability ([1]; first compound 2 µM)	relative viability ([1]; first compound 6.325 µM)	relative viability ([1]; first compound 20 µM)	relative viability ([2]; first compound 0.2 µM)	relative viability ([2]; first compound 0.6325 µM)	relative viability ([2]; first compound 2 µM)	relative viability ([2]; first compound 6.325 µM)	relative viability ([2]; first compound 20 µM)
HOP-62	1.33	1.08	1.14	1.1	1.04	0.262	0.312	0.345	0.371	0.534	0.418	0.367	0.376	0.348	0.302	0.264	0.287	0.314	0.294
NCI-H2126	1.04	1.3	1.23	1.38	1.27	0.626	0.689	0.55	0.472	0.767	0.864	0.909	0.782	0.87	0.573	0.653	0.762	0.666	0.67
LXF-289	0.978	0.998	0.985	0.964	0.908	0.798	0.815	0.872	0.797	0.241	0.208	0.216	0.169	0.186	0.941	0.877	0.868	0.857	0.868
HCC-366	0.941	0.94	0.947	0.932	0.528	0.119	0.155	0.15	0.152	0.097	0.0983	0.148	0.0779	0.15	0.143	0.17	0.188	0.165	0.155
RERF-LC-KJ	0.888	0.928	0.875	0.936	0.901	0.154	0.235	0.457	0.289	0.535	0.465	0.538	0.504	0.499	0.484	0.507	0.486	0.464	0.461
NCI-H661	0.941	1.01	1.05	0.955	0.963	0.915	0.899	0.98	0.904	0.351	0.351	0.352	0.362	0.337	0.92	0.882	1.01	0.858	0.759
NCI-H1395	0.865	0.92	1.03	0.94	0.911	0.852	0.964	–	1.13	0.726	0.692	0.813	0.677	0.705	0.931	0.983	1.03	0.769	0.754
SW 900	0.924	1.2	0.955	0.732	1.25	0.366	0.466	0.486	0.435	0.63	0.703	0.498	0.542	0.462	0.525	0.496	0.507	0.474	0.472
COR-L23	1.12	1.06	1.01	0.961	0.911	0.201	0.206	0.191	0.196	0.2	0.213	0.227	0.206	0.198	0.188	0.211	0.19	0.184	0.217
NCI-H1650	1.14	1.07	1.02	0.872	0.766	0.385	0.396	0.362	0.412	0.484	0.441	0.424	0.353	0.461	0.335	0.349	0.443	0.355	0.459
HCC-44	–	–	–	–	–	0.587	0.615	0.614	0.402	0.795	0.953	1.06	0.848	0.996	0.688	0.669	0.699	0.707	0.653
Calu-6	0.886	0.843	0.941	0.811	0.904	–	–	–	–	–	–	–	–	–	–	–	–	–	–
NCI-H1623	–	0.854	0.827	0.822	0.519	–	–	–	–	–	0.421	0.365	0.475	0.293	–	–	–	–	–
NCI-H1563	0.762	0.967	0.886	0.915	0.927	0.682	0.742	0.586	0.861	–	–	–	–	–	0.71	0.798	0.744	0.739	0.747
NCI-H1299	1.15	1.12	1.09	1.1	1.12	–	–	–	–	–	–	–	–	–	–	–	–	–	–
EBC-1	0.11	0.1	0.0982	0.111	0.117	–	–	–	–	–	–	–	–	–	–	–	–	–	–
NCI-H727	0.835	0.791	0.99	0.705	0.702	–	–	–	–	0.54	0.629	0.764	0.591	0.531	–	–	–	–	–
A549	1.02	0.996	0.998	1.01	0.769	–	–	–	–	–	–	–	–	–	–	–	–	–	–
NCI-H522	–	–	–	–	–	0.989	1.13	0.976	0.823	0.449	0.586	0.56	0.538	0.595	0.765	0.972	1.27	0.984	0.804
NCI-H1792	–	–	–	–	–	0.71	0.881	0.557	1.05	–	–	–	–	–	1.11	0.993	0.954	0.819	1.01
